Measurements published in paper PMC5303205, “Comparative studies on the multi-component pharmacokinetics of Aristolochiae Fructus and honey-fried Aristolochiae Fructus extracts after oral administration in rats” (BMC Complementary and Alternative Medicine, 2017).
Where two headings read alike, the source gives them in different places.

Legend:
[1] = Multi-component pharmacokinetics of AAs in rats after oral administration of AF and HAF extracts (HPLC-MS/MS of plasma); design: species or system Sprague–Dawley (SD) rats; details: Sprague-Dawley, rat, in vivo
Experimental: An aliquot (100 μl) of rat plasma was spiked with 10.0 μL IS, and vortexed with 300 μL acetic ether for 10 s before the supernatant was transferred into centrifuge tube. The extraction was repeated with 200 μL acetic ether. The combined organic layer was evaporated to dryness under a gentle stream of nitrogen at RT. The residue was resolved in 100 μL methanol and centrifuged at 15,800 × g for 10 min. The supernatant was used for HPLC-MS/MS analysis.
Chromatographic separation was performed by an Acquity C18 column (4.6 × 100 mm,3.5 μm) (Agilent Technologies, USA). The mobile phase was composed of water (containing 10 mM ammonium formate and formic acid, pH 3.0) (solvent A) and ACN (solvent B). The gradient profile of B was: 0–10 min, 35–38%; 10–11 min, 38– 60%; 11–17 min, 60–35%B; 17–18 min, 35%. The flow rate was kept at 0.5 mL/min. The column oven was set at 30 °C and the injection volume was 10 μL.
The mass spectrometer was operated in the positive ion electrospray mode with multiple reaction monitoring (MRM). The optimal MS parameters were set at the following parameters: a desolvation gas temperature of 450 °C, desolvation gas flow of 10 L/min, a nebulizer gas of 40 psi and a capillary voltage of 4000 V. The mass spectrometry conditions of AA I, AA II, AA C, AA D, 7-OH AA I and IS are summarized in Additional file 1: Table S1.
The rats were randomly divided into 6 groups (low, middle and high doses of AF and HAF; n = 6). After a week of acclimation, the animals were fasted for 12 h with free access to water. Then, AF and HAF extracts were administered to the rats. The extracts were suspended in 0.5% CMC–Na solution, and the oral doses (according to AA I in the extracts) were 3.0 mg/kg, 8.0 mg/kg and 15.0 mg/kg, respectively.
Blood samples were collected from the ocular vein using dried heparinized tubes at 0, 0.083, 0.17, 0.33, 0.50, 0.67, 0.83, 1, 2, 4, 6, 8, 10, 12 and 24 h from the start. The animals received fluid replacement (sterile isotonic saline) after every two samplings since the fifth collecting. The samples were then immediately centrifuged at 3100 × g for 10 min. The plasma obtained was frozen and stored at –20 °C until analysis.
All statistical analyses were performed using the SPSS 11.0 software (Chicago, USA). P values <0.05 were considered statistically significant. Pharmacokinetic analysis was performed using the proprietary DAS 3.0 software (Mathematical Pharmacology Professional Committee of China, Shanghai, China).
After the oral administration of AF and HAF extracts, rat plasma samples were prepared and analyzed as described above. Five main AAs can be detected in rat blood with the proposed HPLC-MS/MS method. The mean pharmacokinetic parameters of five AAs in AF and HAF are summarized in Tables 4, 5 and Additional files 5, 6, 7: Tables S4-S6. The maximum concentration (C max) was the experimentally-observed value. The other pharmacokinetic parameters of the five analytes were fitted by DAS 3.0 software.

[2] = Stability of AAs in rat plasma (QC samples, HPLC-MS/MS); format: in vitro ADME; details: n = 5; for Short-term stability (RSD/%): fresh rat plasma at room temperature for 24 h before sample preparation; for Post-preparation stability (RSD/%): prepared rat plasma samples at room temperature for 24 h; for Long-term stability (RSD/%): rat plasma stored at –20 °C for 14 days; for Freeze-thaw stability (RSD/%): rat plasma, three freeze-thaw cycles (–20 °C 24 h, thawed at room temperature)
Experimental: The QC samples were assayed under several different conditions to evaluate the stability of AAs in rat plasma. The freeze-thaw stability of the analyte was determined over three freeze-thaw cycles. In each freeze-thaw cycle, the samples were frozen and stored at –20 °C for 24 h, then thawed at room temperature. To evaluate the long-term stability of AAs, the plasma samples were stored at –20 °C for 14 days. For the short-term stability, fresh plasma samples were kept at room temperature for 24 h before the sample preparation. After keeping the samples at room temperature for 24 h, post-preparation stability was tested. Stability was evaluated by comparing the mean concentration of the stored samples with the mean concentration of those prepared freshly. The stability data were acceptable when the bias was within ±15% of the actual value.

[3] = 3 mg/kg, AF extract, low dose (3.0 mg/kg as AA I), analyte dose mg/kg: AA I 3.0, AA II 0.21, AA C 1.42, AA D 1.60, 7-OH AA I 2.33, n = 6
[4] = 3 mg/kg, HAF extract, low dose (3.0 mg/kg as AA I), analyte dose mg/kg: AA I 3.0, AA II 0.26, AA C 1.53, AA D 1.51, 7-OH AA I 2.48, n = 6
[5] = 8 mg/kg, AF extract, mid dose (8.0 mg/kg as AA I), analyte dose mg/kg: AA I 8.0, AA II 0.56, AA C 3.78, AA D 4.26, 7-OH AA I 6.22, n = 6
[6] = 8 mg/kg, HAF extract, mid dose (8.0 mg/kg as AA I), analyte dose mg/kg: AA I 8.0, AA II 0.69, AA C 4.09, AA D 4.03, 7-OH AA I 6.62, n = 6
[7] = 15 mg/kg, AF extract, high dose (15.0 mg/kg as AA I), analyte dose mg/kg: AA I 15.0, AA II 1.05, AA C 7.09, AA D 8.00, 7-OH AA I 11.66, n = 6
[8] = 15 mg/kg, HAF extract, high dose (15.0 mg/kg as AA I), analyte dose mg/kg: AA I 15.0, AA II 1.29, AA C 7.66, AA D 7.56, 7-OH AA I 12.41, n = 6
[9] = high QC conc ng/mL: AA I 1830, AA II 3200, AA C 2980, AA D 3680, 7-OH AA I 3280
[10] = low QC conc ng/mL: AA I 1.83, AA II 8.00, AA C 186.3, AA D 36.8, 7-OH AA I 82.0
[11] = middle QC conc ng/mL: AA I 457.5, AA II 400, AA C 372.5, AA D 460, 7-OH AA I 410

O=C(O)c1cc2c(c3c1c([N+](=O)[O-])cc1ccccc13)OCO2 [AA II]
AUC(0-inf) [1, 3]: 3960 ± 1000 ng·h/mL | Cmax [1, 3]: 590 ± 191 ng/mL | Tmax [1, 3]: 1.03 ± 0.18 h | CL/F ([1]; 3 mg/kg, AF extract, low dose (3.0 mg/kg as AA I), analyte dose mg/kg: AA I 3.0, AA II 0.21, AA C 1.42, AA D 1.60, 7-OH AA I 2.33, n = 6, read-out: CLz/F (converted)): 1.17 mL/min/kg | Vd/F ([1]; 3 mg/kg, AF extract, low dose (3.0 mg/kg as AA I), analyte dose mg/kg: AA I 3.0, AA II 0.21, AA C 1.42, AA D 1.60, 7-OH AA I 2.33, n = 6, read-out: Vz/F): 0.49 ± 0.06 L/kg | half-life ([1]; 3 mg/kg, AF extract, low dose (3.0 mg/kg as AA I), analyte dose mg/kg: AA I 3.0, AA II 0.21, AA C 1.42, AA D 1.60, 7-OH AA I 2.33, n = 6, read-out: t 1/2z (converted)): 4.98 ± 0.55 h | AUC(0-inf) [1, 4]: 2720 ± 795 ng·h/mL | Cmax [1, 4]: 293 ± 55.2 ng/mL | Tmax [1, 4]: 0.81 ± 0.14 h | CL/F ([1]; 3 mg/kg, HAF extract, low dose (3.0 mg/kg as AA I), analyte dose mg/kg: AA I 3.0, AA II 0.26, AA C 1.53, AA D 1.51, 7-OH AA I 2.48, n = 6, read-out: CLz/F (converted)): 1.33 mL/min/kg | Vd/F ([1]; 3 mg/kg, HAF extract, low dose (3.0 mg/kg as AA I), analyte dose mg/kg: AA I 3.0, AA II 0.26, AA C 1.53, AA D 1.51, 7-OH AA I 2.48, n = 6, read-out: Vz/F): 0.55 ± 0.07 L/kg | half-life ([1]; 3 mg/kg, HAF extract, low dose (3.0 mg/kg as AA I), analyte dose mg/kg: AA I 3.0, AA II 0.26, AA C 1.53, AA D 1.51, 7-OH AA I 2.48, n = 6, read-out: t 1/2z (converted)): 4.94 ± 0.61 h | AUC(0-inf) [1, 5]: 7820 ± 1980 ng·h/mL | Cmax [1, 5]: 1140 ± 193 ng/mL | Tmax [1, 5]: 1.33 ± 0.21 h | CL/F ([1]; 8 mg/kg, AF extract, mid dose (8.0 mg/kg as AA I), analyte dose mg/kg: AA I 8.0, AA II 0.56, AA C 3.78, AA D 4.26, 7-OH AA I 6.22, n = 6, read-out: CLz/F (converted)): 1.17 mL/min/kg | Vd/F ([1]; 8 mg/kg, AF extract, mid dose (8.0 mg/kg as AA I), analyte dose mg/kg: AA I 8.0, AA II 0.56, AA C 3.78, AA D 4.26, 7-OH AA I 6.22, n = 6, read-out: Vz/F): 0.48 ± 0.05 L/kg | half-life ([1]; 8 mg/kg, AF extract, mid dose (8.0 mg/kg as AA I), analyte dose mg/kg: AA I 8.0, AA II 0.56, AA C 3.78, AA D 4.26, 7-OH AA I 6.22, n = 6, read-out: t 1/2z (converted)): 5.06 ± 0.49 h | AUC(0-inf) [1, 6]: 3870 ± 1200 ng·h/mL | Cmax [1, 6]: 412 ± 104 ng/mL | Tmax [1, 6]: 0.81 ± 0.16 h | CL/F ([1]; 8 mg/kg, HAF extract, mid dose (8.0 mg/kg as AA I), analyte dose mg/kg: AA I 8.0, AA II 0.69, AA C 4.09, AA D 4.03, 7-OH AA I 6.62, n = 6, read-out: CLz/F (converted)): 1.17 mL/min/kg | Vd/F ([1]; 8 mg/kg, HAF extract, mid dose (8.0 mg/kg as AA I), analyte dose mg/kg: AA I 8.0, AA II 0.69, AA C 4.09, AA D 4.03, 7-OH AA I 6.62, n = 6, read-out: Vz/F): 0.49 ± 0.06 L/kg | half-life ([1]; 8 mg/kg, HAF extract, mid dose (8.0 mg/kg as AA I), analyte dose mg/kg: AA I 8.0, AA II 0.69, AA C 4.09, AA D 4.03, 7-OH AA I 6.62, n = 6, read-out: t 1/2z (converted)): 4.95 ± 0.53 h | AUC(0-inf) [1, 7]: 12700 ± 2960 ng·h/mL | Cmax [1, 7]: 1520 ± 200 ng/mL | Tmax [1, 7]: 1.83 ± 0.29 h | CL/F ([1]; 15 mg/kg, AF extract, high dose (15.0 mg/kg as AA I), analyte dose mg/kg: AA I 15.0, AA II 1.05, AA C 7.09, AA D 8.00, 7-OH AA I 11.66, n = 6, read-out: CLz/F (converted)): 1.83 mL/min/kg | Vd/F ([1]; 15 mg/kg, AF extract, high dose (15.0 mg/kg as AA I), analyte dose mg/kg: AA I 15.0, AA II 1.05, AA C 7.09, AA D 8.00, 7-OH AA I 11.66, n = 6, read-out: Vz/F): 0.82 ± 0.09 L/kg | half-life ([1]; 15 mg/kg, AF extract, high dose (15.0 mg/kg as AA I), analyte dose mg/kg: AA I 15.0, AA II 1.05, AA C 7.09, AA D 8.00, 7-OH AA I 11.66, n = 6, read-out: t 1/2z (converted)): 5.16 ± 0.52 h | AUC(0-inf) [1, 8]: 5630 ± 1690 ng·h/mL | Cmax [1, 8]: 528 ± 62.4 ng/mL | Tmax [1, 8]: 0.93 ± 0.19 h | CL/F ([1]; 15 mg/kg, HAF extract, high dose (15.0 mg/kg as AA I), analyte dose mg/kg: AA I 15.0, AA II 1.29, AA C 7.66, AA D 7.56, 7-OH AA I 12.41, n = 6, read-out: CLz/F (converted)): 1.5 mL/min/kg | Vd/F ([1]; 15 mg/kg, HAF extract, high dose (15.0 mg/kg as AA I), analyte dose mg/kg: AA I 15.0, AA II 1.29, AA C 7.66, AA D 7.56, 7-OH AA I 12.41, n = 6, read-out: Vz/F): 0.72 ± 0.08 L/kg | half-life ([1]; 15 mg/kg, HAF extract, high dose (15.0 mg/kg as AA I), analyte dose mg/kg: AA I 15.0, AA II 1.29, AA C 7.66, AA D 7.56, 7-OH AA I 12.41, n = 6, read-out: t 1/2z (converted)): 5.39 ± 0.48 h | Short-term stability (RSD/%) [2, 9]: 9.3% | Short-term stability (RSD/%) [2, 10]: 5.0% | Short-term stability (RSD/%) [2, 11]: 5.5% | Post-preparation stability (RSD/%) [2, 9]: 6.5% | Post-preparation stability (RSD/%) [2, 10]: 4.4% | Post-preparation stability (RSD/%) [2, 11]: 3.6% | Long-term stability (RSD/%) [2, 9]: 7.3% | Long-term stability (RSD/%) [2, 10]: 1.2% | Long-term stability (RSD/%) [2, 11]: 8.2% | Freeze-thaw stability (RSD/%) [2, 9]: 14.3% | Freeze-thaw stability (RSD/%) [2, 10]: 1.3% | Freeze-thaw stability (RSD/%) [2, 11]: 10.2%
